Read-outs that look alike come from different tables or passages of the source. Blank lines part the entries; values can stand above or below the compound they belong to.
Key:
[1] = target: T1, GSK3b (GST-full length GSK3b) (Homo sapiens, UniProt P49841); assay: GSK3b TR-FRET kinase inhibition assay; format: biochemical
T1 construct: GST-full length GSK3b: [SignalChem G08-9G]; purchased SignalChem G08-9G
How it was run: (§1)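 IC50 derived from normalized 665/615 TR-FRET signal (Tb anti-pSer641 antibody, streptavidin-d2), read after EDTA stop. Reaction: 1 nM GST-full-length enzyme, 30 min compound pre-incubation, 100 min at ambient temperature in Tris pH 7.5 with 1% DMSO, 200 nM biotinylated primed glycogen synthase peptide, ATP 2 μM to 1 mM.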

[2] = target: T2, GSK3a (GST-full length GSK3a) (Homo sapiens, UniProt P49840); assay: GSK3a TR-FRET kinase inhibition assay; format: biochemical
T2 construct: GST-full length GSK3a [SignalChem G08-10G]; purchased SignalChem G08-10G
How it was run: as §1

[3] = Human liver microsomal stability; format: in vitro ADME; conditions: for half-life at 1 µM: human, liver microsomes
How it was run: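 Compound incubated at 1 µM with human liver microsomes for 60 min at 37 °C, in duplicate. Percent remaining derived from compound level at 60 min relative to 0 min. Controls: microsomes with NADPH and no compound; compound with microsomes lacking NADPH.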

MDR1 = assay: MDR1/MDCK permeability assay; format: in vitro ADME; conditions: dog; for Papp A→B at 120 min, 5 µM: MDCK-MDR1, pH 7.4, A to B; for Papp B→A at 120 min, 5 µM: MDCK-MDR1, pH 7.4, B to A; for efflux ratio at 120 min, 5 µM: MDCK-MDR1, pH 7.4, Papp B-A/A-B, Mean, P. Ratio(B-A/A-B) Efflux Ratio
How it was run: (§2)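 Confluent MDR1-MDCK monolayers (7–11 days old), compound dosed at 5 μM in HBSSg (≤1% DMSO) apically or basolaterally, pH 7.4 both sides, receiver with 1% BSA, N=2. Both sides sampled at 120 min and quantified by LC-MS/MS; Papp in each direction, efflux ratio B-A/A-B and recovery reported.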

[4] = system: MDR1-MDCK cell monolayers; assay: MDR1/MDCK permeability assay; format: in vitro ADME; conditions: Table 4
How it was run: as §2

T2 sequence (P49840 whole entry): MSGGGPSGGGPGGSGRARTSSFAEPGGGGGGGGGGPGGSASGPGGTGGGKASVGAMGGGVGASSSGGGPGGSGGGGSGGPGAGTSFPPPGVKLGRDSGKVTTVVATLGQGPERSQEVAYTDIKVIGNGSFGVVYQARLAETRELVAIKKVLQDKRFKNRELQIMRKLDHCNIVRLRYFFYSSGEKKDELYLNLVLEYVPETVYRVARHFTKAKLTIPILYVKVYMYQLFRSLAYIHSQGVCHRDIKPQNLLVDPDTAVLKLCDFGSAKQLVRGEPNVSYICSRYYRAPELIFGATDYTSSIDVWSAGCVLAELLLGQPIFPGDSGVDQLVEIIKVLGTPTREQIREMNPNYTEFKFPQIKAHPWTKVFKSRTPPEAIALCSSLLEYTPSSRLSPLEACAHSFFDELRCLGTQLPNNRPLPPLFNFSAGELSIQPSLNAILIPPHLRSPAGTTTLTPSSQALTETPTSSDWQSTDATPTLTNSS
T1 sequence (P49841 whole entry): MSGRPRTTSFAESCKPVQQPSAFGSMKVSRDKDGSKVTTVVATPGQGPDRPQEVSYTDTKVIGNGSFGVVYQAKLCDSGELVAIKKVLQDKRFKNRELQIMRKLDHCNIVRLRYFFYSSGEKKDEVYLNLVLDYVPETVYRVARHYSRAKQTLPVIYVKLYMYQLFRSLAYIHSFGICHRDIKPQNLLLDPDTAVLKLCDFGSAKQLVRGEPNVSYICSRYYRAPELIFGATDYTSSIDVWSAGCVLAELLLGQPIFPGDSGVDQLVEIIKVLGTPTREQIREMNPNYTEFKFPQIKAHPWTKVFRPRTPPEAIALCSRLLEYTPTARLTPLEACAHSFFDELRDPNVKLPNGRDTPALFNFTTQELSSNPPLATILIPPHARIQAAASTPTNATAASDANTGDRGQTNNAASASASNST

IC50 ([1]; 10 μM ATP, read-out: GSK3b 10 μM ATP Average IC50): ≤ 100 nM | IC50 ([1]; 100 μM ATP, read-out: GSK3b 100 μM ATP Average IC50): 100 to 1000 nM | IC50 ([1]; 1 mM ATP, Table 3, read-out: GSK3b TR-FRET 1 mM ATP Average IC50): 1000 to 5000 nM | IC50 ([2]; 10 μM ATP, read-out: GSK3a 10 μM ATP Average IC50): ≤ 100 nM | IC50 ([2]; 100 μM ATP, read-out: GSK3a 100 μM ATP Average IC50): 100 to 1000 nM | IC50 ([2]; 1 mM ATP, Table 3, read-out: GSK3a TR-FRET 1 mM ATP Average IC50): 1000 to 5000 nM | half-life at 1 µM ([3]; Table 3, read-out: Microsome Stability (Human) (DMPK_BIIB), Mean, in vitro t1/2): 78 min | half-life at 1 µM ([3]; Table 4, read-out: Microsome Stability (Human) (DMPK_BIIB), Mean, in vitro t1/2): 1.4 min | Papp A→B at 120 min, 5 µM (MDR1; Table 3): 14 ×10⁻⁶ cm/s | Papp A→B at 120 min, 5 µM (MDR1; Table 4): 13 ×10⁻⁶ cm/s | Papp B→A at 120 min, 5 µM (MDR1; Table 3): 8.2 ×10⁻⁶ cm/s | Papp B→A at 120 min, 5 µM (MDR1; Table 4): 19 ×10⁻⁶ cm/s | efflux ratio at 120 min, 5 µM (MDR1; Table 3, read-out: MIDCK Permeability (MDR1-MDCK)): 0.56 | efflux ratio at 120 min, 5 µM (MDR1; Table 4, read-out: MDCK Permeability (MDR1-MDCK)): 1.5
Compound: CCC1(c2ccccc2)C2=C(CC(C)(C)CC2=O)Nc2ncc(C(F)(F)F)cc21 (single isomer, unassigned) [Compound 133A]

IC50 ([1]; 2 μM ATP, read-out: GSK3β TR-FRET 2 μM ATP GMean IC50): ≤ 100 nM | IC50 ([1]; 1 mM ATP, Table 4, read-out: GSK3β TR-FRET 1 mM ATP GMean IC50): 1000 to 5000 nM | IC50 ([2]; 4 μM ATP, read-out: GSK3α TR-FRET 4 μM ATP GMean IC50): ≤ 100 nM | IC50 ([2]; 1 mM ATP, Table 4, read-out: GSK3α TR-FRET 1 mM ATP GMean IC50): 100 to 1000 nM | Microsome Stability (Human) (DMPK_BIIB); Mean; in vitro t1/2 ([3]; human liver microsomes, Table 4): 4.6 min | MDCK Permeability (MDR1-MDCK); Mean; Papp(A-B) (10^−6 cm/s) ([4]; A to B): 6.6 10^−6 cm/s | MDCK Permeability (MDR1-MDCK); Mean; Papp(B-A) (10^−6 cm/s) ([4]; B to A): 22 10^−6 cm/s | MDCK Permeability (MDR1-MDCK); Mean; P. Ratio(B-A/A-B) Efflux Ratio ([4]; Papp B-A/A-B): 3.3
Compound: CCC1(c2cccc(-c3ccnc4c3CCCC4)c2)C2=C(CC(C)(C)CC2=O)Nc2ncccc21 (single isomer, unassigned) [Compound 1039B]
